According to patent US20260094676A1, “METHOD AND APPARATUS FOR PREDICTING DRUG BIOAVAILABILITY” (LIVERPOOL JOHN MOORES UNIVERSITY, priority 2022, published 2026):
Counter-ions that a name gives are not always drawn. Like-named read-outs stand apart in the source and are kept apart here. Values belong to the compound of their own block, whether it stands above or below them.

Key:
[1] = Reversed phase TLC lipophilicity measurement on Leucaena oil device (LOD); settings: for ICHI (isocratic chromatographic hydrophobicity index): LOD R1 to R10, methanol in water mobile phase
Protocol: Silica gel GF254 plates (5×10 cm) are successively developed by ascending development in the oil solution. Ten consecutive runs were carried out in each of the six tanks set up to prepare the Leucaena oil device (LOD).
The plates were air-dried at room temperature and the plates were developed in saturated development tanks containing 10 mL of the mobile phase. The plates were developed over a path of 7 cm and allowed to air-dry before visualization under UV light at 254 nm. The retardation factor (Rf) was then measured. The development was performed in duplicate.
Rm was computed by the equation: […]
The linear regression of Rm versus organic modifier fraction is governed by the Soczewinski Wachmeister equation: […]
The mobile phase used consisted of various concentrations of methanol in 0.1N HCl and Phosphate buffer pH 6.8.
(§1) Data analysis was done as previously described, Rf was transformed to Rm and linear regression analysis implemented to determine the lipophilicity parameter, ICHI.
(§2) Data analysis was performed as described earlier under data analysis in previous sections. Rf is transformed to Rm and linear regression of Rm versus methanol fraction produces linear regression parameters that provide the lipophilicity metric.

[2] = concomitant intake of kolanut with halofantrine; cited from earlier work
[3] = humans, cited from earlier work
[4] = dogs, cited from earlier work
[5] = Protocol: The mobile phase used consisted of various concentrations of methanol in 0.1N HCl and phosphate buffer pH 6.8.
as §1, §2

[6] = cited from earlier work
[7] = 48 h
[8] = halofantrine administered postprandially

Qsi ([1]; LOD, combination with model Garcinia bioflavonoid): about 10
SMILES: O=C(O)c1cn(C2CC2)c2cc(N3CCNCC3)c(F)cc2c1=O [ciprofloxacin hydrochloride]

SMILES: CCCCNCCC(O)c1cc2c(Cl)cc(Cl)cc2c2cc(C(F)(F)F)ccc12 (stereo not drawn) [desbutylhalofantrine]
Cmax, effect of concomitant kolanut [2]: significantly decreased | t1/2, effect of concomitant kolanut [2]: no significant effect | tmax, effect of concomitant kolanut [2]: no significant effect | decrease of proportional formation of desbutyl metabolite [3, 8]: 2.4 fold | decrease of proportional formation of desbutyl metabolite [4, 8]: 6.8 fold

SMILES: CCCCN(CCCC)CCC(O)c1cc2c(Cl)cc(Cl)cc2c2cc(C(F)(F)F)ccc12 (stereo not drawn) [halofantrine]
Solubility interaction quotient (Qsi), fold more lipophilic than caffeine ([1]; LOD, halofantrine versus caffeine): 24 fold | Qsi ([1]; LOD, ketoconazole and halofantrine): 1.42 | Solubility interaction quotient (Qsi), fold more lipophilic than caffeine ([5]; ODS, halofantrine versus caffeine): 2 fold | Cmax, effect of concomitant kolanut [2]: significantly decreased | t1/2, effect of concomitant kolanut [2]: no significant effect | tmax, effect of concomitant kolanut [2]: no significant effect | increase of oral bioavailability ([3]; administered postprandially): 3 fold | increase of oral bioavailability ([4]; administered postprandially): 12 fold | plasma Hfm/Hf AUC (0-72 h) ratio ([6]; fasted oral administration of Hf with ketoconazole): less than 0.05 | plasma Hfm/Hf AUC (0-72 h) ratio ([6]; fasted oral administration of Hf without ketoconazole): 0.56

SMILES: CC(=O)N1CCN(c2ccc(OCC3COC(Cn4ccnc4)(c4ccc(Cl)cc4Cl)O3)cc2)CC1 (stereo not drawn) [ketoconazole]
Lipophilicity classification based on ICHI [1]: amphiphilic | ICHI, mean value ([1]; LOD, mean over 0.1N HCl and phosphate buffer pH 6.8 mobile phases): 0.70 | Lipophilicity classification based on ICHI [5]: lipophilic | ICHI, mean value ([5]; ODS, mean over 0.1N HCl and phosphate buffer pH 6.8 mobile phases): 0.86 | critical point ('critical micellar concentration') of ketoconazole for halofantrine solubility [7]: 0.015%

ICHI (isocratic chromatographic hydrophobicity index) [1]: 0.61-0.63
SMILES: COc1ccc2cc(CCC(C)=O)ccc2c1 [nabumetone]

ICHI (isocratic chromatographic hydrophobicity index) [1]: 0.52-0.54
SMILES: Oc1cccc2ccccc12 [α-naphthol]

ICHI (isocratic chromatographic hydrophobicity index) [1]: 0.46-0.48
SMILES: Oc1ccc2ccccc2c1 [β-naphthol]
